The record followed here is PubChem BioAssay AID2305 (GlaxoSmithKline (GSK), 2010).

This assay relates to P. falciparum 3D7 growth, pLDH absorbance. Kind of assay: P. falciparum 3D7 growth inhibition, dose response, strain 3D7 (AID 2305).

Compound `O=C(NCc1cccnc1)C(c1cc2ccccc2o1)N1CCN(C(c2ccccc2)c2ccccc2)CC1` (configuration not stated) gave an IC50 of 0.71 µM.

Regarding `CC(C)(C)CCN1CCC(NC(=O)c2ccc(-c3cccc(C(F)(F)F)c3)s2)CC1`, the IC50 was found to be 0.76 µM.

In turn, `Cc1cccc2[nH]c(-c3ccc(-c4ccc(CNCc5cccc(N)c5)cc4)cc3)nc12` yielded an IC50 of 0.57 µM.

Regarding `c1ccc2[nH]c(-c3ccc(-c4ccc(CN5CCN(CCN6CCOCC6)CC5)cc4)cc3)nc2c1`, the IC50 was 0.16 µM.

With `Cc1ccc(Nc2nccc(NCC(O)c3cccc(F)c3)n2)cc1` (configuration not stated), the IC50 was determined as 0.67 µM.

For `COc1ccc(Cl)cc1NC(=O)Nc1ccnc2ccccc12`, the IC50 came to 0.68 µM.

Compound `Cc1cc(-c2cccc(CNC3CCN(C)CC3)c2)ccc1S(=O)(=O)NC1CCC1` registered an IC50 of 0.73 µM.

Consider `Cc1cc(N2CCC(NS(=O)(=O)c3cccc4cccnc34)CC2)nc(Nc2cccc(C#N)c2)n1`, for which the IC50 came out at 0.75 µM.

For `COc1ccc(NC(=O)Nc2cccc(-c3ccc(-c4nc5c(C)cccc5[nH]4)s3)c2)cc1`, the IC50 amounted to 0.67 µM.

Consider `c1ccc2c(NCCCCCCCNc3ccnc4ccccc34)ccnc2c1`, for which the IC50 came out at 0.17 µM.

`Cc1ccc(CCNCC(O)c2cccc(C(F)(F)F)c2)cc1` (configuration not stated) showed an IC50 of 0.87 µM.

Take `CC(=O)Nc1cccc(/C=C/C(=O)N2CCC(N3CCCCC3)CC2)c1`: the IC50 was found to be 1.05 µM.

As for `Cc1cc(Nc2cccc(C(F)(F)F)c2)nc(N)n1`, the 50% inhibitory concentration (IC50) was 0.79 µM.

Compound `CO/C(=C\C=C\c1cc2cc(Cl)c(Cl)cc2[nH]1)C(=O)NCCCNCCN(C)c1ccccc1` yielded an IC50 of 0.78 µM.

For `CN1CCN(c2ccc(Nc3ncc([N+](=O)[O-])c(Nc4ccccc4O)n3)cc2)CC1`, the half-inhibitory concentration (IC50) is 0.72 µM.

In the case of `CC(=O)N(Cc1ccc(-c2ccc(CNCCc3ccccc3)cc2)cc1)C1CCN(Cc2ccccc2)CC1`, the IC50 was 0.94 µM.

The compound `COc1cccc2cc(C(=O)N[C@@H](CC(C)C)C(=O)N[C@H](/C=N/NC(=O)OC(C)(C)C)CC(=O)OC(C)(C)C)oc12` had an IC50 of 0.4 µM.

For `COc1cccc(CN2CCCC(OC(c3ccc(F)cc3)c3ccc(F)cc3)C2)c1O` (configuration not stated), the IC50 is 0.79 µM.

Compound `CCCN1CCN(CCCNC(=O)c2cc3c(Cl)nc4ccc(C)cc4c3s2)CC1` registered an IC50 of 0.8 µM.

`COc1ccc(C2CC(c3cccs3)=NN2C(=O)COc2cccc3c2CCCC3O)cc1OC` (configuration not stated) returned an IC50 of 1.15 µM.

For `CCC(=O)N(c1ccccc1)C1CCN(CCCC(NC(=O)c2cc(C(F)(F)F)cc(C(F)(F)F)c2)c2ccc(Cl)c(Cl)c2)CC1` (configuration not stated), the IC50 stood at 0.8 µM.

Take `N#Cc1ccc(N(CCOc2ccc3c(c2)CCC(=O)N3)Cc2ccccc2C(F)(F)F)cc1C(F)(F)F`: the 50% inhibitory concentration (IC50) is 0.76 µM.

The compound `Nc1ccnc(N2CCC(CCOc3ccnc4cc(Cl)ccc34)CC2)c1` showed an IC50 of 1.16 µM.

Regarding `CC(C)(C)CCOC(=O)N1CCc2c(cc(O)c(O)c2Cl)C(c2ccc(O)cc2)C1` (configuration not stated), the IC50 worked out at 0.75 µM.

`C#CCNCc1ccc(-c2cccc(-c3nc4c(C)cccc4[nH]3)c2)cc1` gave a half-inhibitory concentration (IC50) of 0.82 µM.

As to `O=C(/C=C/c1ccc(Cl)cc1)NCCCCCN1CCN(C(=O)C=Cc2ccc(Cl)c(Cl)c2)CC1`, the IC50 turned out to be 0.99 µM.

As to `CCOC(=O)c1cccc(N/C(N)=N/c2nc(C)cc(NCCc3ccccc3)n2)c1`, the IC50 is 0.68 µM.

As for `COc1cc2ncnc(Nc3ccc(OCc4ccccc4Br)c(Cl)c3)c2cc1OC`, the IC50 stood at 1.28 µM.

`O=c1cc(NC[C@H]2CCC[C@@H]2NCc2cc(Br)cc(Br)c2)[nH]c2ccccc12` registered an IC50 of 0.68 µM.

`CN1CCCC1CCNCc1cccc(-c2cnc(N(C)C3CCCCC3)nc2)c1` (configuration not stated) displayed an IC50 of 0.85 µM.

In turn, `CN1CCN(CCCN(Cc2ccc(-c3cccc(CNCc4ccc5c(c4)OCO5)c3)cc2)C(=O)NCCc2ccccc2)CC1` registered an IC50 of 0.84 µM.

Take `Cc1cc(Br)cnc1CCCCN=C1NC(=O)CN1C`: the IC50 was 0.37 µM.

`COc1cccc(C2(C)CCN(CCCCNC(=O)c3ccc(NC(=O)c4ccc(Cl)cc4)cc3)CC2)c1` yielded a concentration for half-maximal inhibition (IC50) of 0.83 µM.

Take `COc1ccc2c(NN=Cc3ccccc3)cc(C)nc2c1`: the IC50 came to 0.85 µM.

For `OC1(C(F)(F)F)CC(c2ccccc2)=NN1c1nncc(-c2ccccc2)n1` (configuration not stated), the IC50 came to 0.73 µM.

For the compound `Oc1cc(-c2nc(-c3ccccc3)[nH]c2-c2ccncc2)ccc1Cl`, the half-inhibitory concentration (IC50) worked out at 0.81 µM.

In the case of `Cc1ccc(NC(=O)Nc2ccc(I)c(OCCN(C)C)c2)cc1Cl`, the IC50 worked out at 0.56 µM.

Compound `O=C1c2ccc([N+](=O)[O-])cc2C(=O)N1c1ccc2[nH]ncc2c1` returned an IC50 of 1.15 µM.

The compound `CCN1CCCC1CN(Cc1ccc(-c2ccc(C(F)(F)F)cc2)cc1)C(=O)Cn1c(CCc2cccc(F)c2F)nc(=O)c2ccccc21` (configuration not stated) returned an IC50 of 1.59 µM.

The compound `COc1nc(NCC(C)C)nc(Oc2ccc(=O)n(Cc3ccccc3)n2)n1` came in with an IC50 of 0.63 µM.

For `COc1cccc(Nc2nccc(NCC(O)c3ccc(C(F)(F)F)cc3)n2)c1` (configuration not stated), the half-maximal inhibitory concentration (IC50) amounted to 0.66 µM.

Take `c1cncc(CCNCc2ccc(-c3ccc(CNC4Cc5ccccc5C4)cc3)cc2)c1`: the 50% inhibitory concentration (IC50) worked out at 1.09 µM.

Compound `COc1cccc2cc(C(=O)N[C@@H](CC(C)C)C(=O)N[C@H](/C=N/NC(=O)OC(C)(C)C)Cc3ccccc3)oc12` yielded an IC50 of 0.3 µM.

The compound `CCCCCCC(N)c1ccc(OCCCOc2ccc(C(N)CCCCCC)cc2)cc1` (configuration not stated) returned a half-maximal inhibitory concentration (IC50) of 1.14 µM.

As for `c1ccc2[nH]c(-c3ccc(-c4ccc(CNCC5CCCO5)cc4)s3)nc2c1` (configuration not stated), the IC50 came out at 0.87 µM.

As to `O=C(Nc1ccc(OC2CCN(Cc3ccc(F)cc3)CC2)c(Cl)c1)c1cccs1`, the IC50 was found to be 0.32 µM.

`O=C(Nc1cccc(-c2csc(-c3nc4ccccc4[nH]3)c2)c1)c1cc(=O)c2ccccc2[nH]1` displayed an IC50 of 0.23 µM.

`CN1CCC(NCc2cccc(-c3ccc(S(=O)(=O)NCCc4ccccn4)c(F)c3)c2)CC1` had an IC50 of 0.92 µM.

`O=S(=O)(c1csc2ccccc12)N(CCC(O)(C(F)(F)F)C(F)(F)F)Cc1cccc(O)c1` came in with an IC50 of 0.36 µM.

`N#Cc1cccc(CN(Cc2ccc(Cl)c(Cl)c2)S(=O)(=O)c2cccc([N+](=O)[O-])c2)c1`: the IC50 was found to be 0.81 µM.

In turn, `c1ccc(CN2CCC(NCc3ccccc3-c3ccc(CNCc4ccc5c(c4)OCO5)cc3)CC2)cc1` displayed an IC50 of 0.33 µM.

Take `COc1cccc(Nc2nc(C)cc(NC3CCCC3)n2)c1`: the IC50 was determined as 1.11 µM.

For `Cc1cccc(NC(=O)Nc2ccc(I)c(OCCN(C)C)c2)c1C`, the half-maximal inhibitory concentration (IC50) worked out at 0.73 µM.

`CCCCCn1c(Sc2ccc(C#N)c([N+](=O)[O-])c2)nnc1-c1ccc(OC)cc1` yielded an IC50 of 1.14 µM.

Compound `CCCCOc1cc(C)nc2ccc(NC(=O)COCC(=O)Nc3ccc4nc(C)cc(OCCCC)c4c3)cc12` came in with an IC50 of 1 µM.

For `COc1ccccc1N1CCN(C(C(=O)NCc2cccc(F)c2)c2ccc(C)cc2)CC1` (configuration not stated), the IC50 was 0.89 µM.

On to `CSc1cccc(NC(=O)c2cc3ccccc3oc2=O)c1`, for which the IC50 stood at 0.83 µM.

`COc1cc(F)c2ncc(F)c(CCN3C[C@H](CNCc4ccc5c(n4)NC(=O)CS5)[C@H](O)C3)c2c1` yielded an IC50 of 0.46 µM.

In turn, `O=C(/C=C/c1ccc(Cl)c(Cl)c1)NCCCCCN1CCCN(C(=O)Nc2ccc(Cl)cc2)CC1` returned an IC50 of 0.74 µM.

Take `C=CCC(CC=C)N1C(=O)C(c2ccccc2)(c2ccccc2)N=C1N`: the IC50 amounted to 0.66 µM.

Consider `CCOC(=O)c1[nH]c(-c2ccccc2)nc1-n1nc(C)cc1C`, for which the IC50 came to 0.69 µM.

With `COc1ccc2c(c1)CCCC2C(C)NCC(O)c1cccc(C(F)(F)F)c1` (configuration not stated), the IC50 is 0.35 µM.

`CCCC(=O)Nc1ccc(OCCCCN(Cc2ccccc2C(F)(F)F)c2ccc(C(F)(F)F)c(C#N)c2)cc1` showed a 50% inhibitory concentration (IC50) of 0.97 µM.

For the compound `Cc1nnsc1C(=O)Nc1cccc(-c2cccc(-c3nc4ccc(F)cc4[nH]3)c2)c1`, the IC50 was 0.22 µM.

As for `COc1ccc(Nc2nc(NC3CCN(C)CC3)cc(-c3ccc(OC)cc3)n2)cc1`, the IC50 came to 0.54 µM.

For the compound `CO/C(=C\C=C\c1cc2cc(Cl)c(Cl)cc2[nH]1)C(=O)NCCCCN1CCN(c2ccccc2OC)CC1`, the IC50 is 0.51 µM.

Consider `Cc1ccc(C(=O)NC2C(=O)NC2c2ccccc2)c(C)c1` (configuration not stated), for which the IC50 was 0.95 µM.

Turning to `COc1cc2c(cc1OC)-c1cc(=Nc3c(C)cc(C)cc3C)n(C)c(=O)n1CC2`, the IC50 is 1.11 µM.

As to `O=C(/C=C/c1ccc(Cl)c(Cl)c1)N1CCC(CNCc2cccc3cc[nH]c23)CC1`, the IC50 was 1.22 µM.

On to `CC(Cc1ccc(NC(=O)c2ccc(CC(C)NCc3ccc(Cl)c(Cl)c3)cc2)cc1)NCCc1cccc(Cl)c1` (configuration not stated), for which the half-inhibitory concentration (IC50) came to 1 µM.

Compound `Cc1ccc(NC(=O)N2CCC(n3c(-c4ccccc4)nc4cccnc43)CC2)cc1F` came in with an IC50 of 0.53 µM.

`CC(C)N1CCN(C(CN2CCN(CCCOc3ccc(-c4ccccc4)cc3)CC2)c2ccc(F)cc2)CC1` (configuration not stated) registered an IC50 of 0.68 µM.

`COc1cc(Cc2cnc(N)nc2N)cc(OCCCCC2NC(=O)NC2=O)c1OC` (configuration not stated) showed an IC50 of 0.71 µM.

The compound `CN(C)CCN(C)Cc1ccc(-c2ccc3c(Nc4ccc(Cl)cc4F)ccnc3c2)o1` yielded an IC50 of 0.36 µM.

Consider `CC(C)(CN)c1nc(-c2ccc(Cl)c(O)c2)c(-c2ccnc(N)n2)[nH]1`, for which the concentration for half-maximal inhibition (IC50) amounted to 0.98 µM.

For `COc1cc(NC(=O)N2CCc3ccc(OCCN4CCCCC4)cc32)cc(C(F)(F)F)c1`, the IC50 was 0.27 µM.

`Cc1ccc2[nH]ncc2c1N(CC1CCCCC1)c1ccnc(Nc2ccc(OCC(O)CN3CC=CCC3)cc2)n1` (configuration not stated): the 50% inhibitory concentration (IC50) worked out at 0.62 µM.

The compound `CCN(CC)c1ccc(NC(=S)NC2CCN(CCCCCNC(=O)/C=C/c3ccc(Cl)c(Cl)c3)CC2)cc1` displayed an IC50 of 0.88 µM.

With `Nc1cc(-c2ccc(-c3cccs3)s2)nc2ccccc12`, the IC50 stood at 0.6 µM.

In the case of `COc1ccc(CNCC(C)(C)c2nc(-c3ccc(Cl)c(O)c3)c(-c3ccncc3)[nH]2)cc1`, the IC50 stood at 0.36 µM.

Take `CC[C@@H]([C@@H](Cc1cc2ccccc2s1)C(=O)N[C@@H](CCCCNC(=O)OCc1ccccc1)C(=O)Nc1ccccn1)N(O)C=O`: the half-maximal inhibitory concentration (IC50) is 0.23 µM.

The compound `Cc1cccc(Nc2nc(NCCCCN)nc3cc[nH]c(=O)c23)c1` gave an IC50 of 0.73 µM.

`CC1(C)N=C(N)N=C(N)C1c1ccc(Cl)cc1` (configuration not stated): the IC50 was 0.26 µM.

`CCCCCCCn1c(=O)c(C(=O)Nc2c(C)cccc2C)c(O)c2ccccc21`: the IC50 worked out at 0.91 µM.

In turn, `Cc1cc(F)ccc1Oc1nc(Nc2ccc(N3CCOCC3)c(F)c2)nc2c1S(=O)(=O)CCC2` registered an IC50 of 0.46 µM.

In turn, `O=C(/C=C/c1ccc(Cl)c(Cl)c1)NCCCCCN1CCC(NC(=O)Nc2cccc(Cl)c2)CC1` came in with an IC50 of 0.75 µM.

On to `Cc1cccc2[nH]c(-c3ccc(-c4ccc(NC(=O)C(=O)c5cccn5C)cc4)cc3)nc12`, for which the IC50 was 0.82 µM.
